Test results published in patent publication US20180009764A1, “METHOD FOR TREATING MACROPHAGE MIGRATION INHIBITORY FACTOR (MIF)-IMPLICATED DISEASES AND CONDITIONS WITH IODO PYRIMIDINE DERIVATIVES” (UNIVERSITY OF LOUISVILLE RESEARCH FOUNDATION, INC., priority 2009, published 2018).
In brackets after ≈: the same amount, converted by molar mass.

Tests used:
MIF [1] = molecular target: T1, MIF (Mus musculus, UniProt P34884); assay: MIF liver lysates enzymatic activity ex vivo (L-dopachrome tautomerase); conditions: mice; IP 1 mg in corn oil every day for 3 days; livers 6 hours after last injection; FIG. 1
T1 construct: from tissue; host or cells: mouse liver (A7); liver, lung and brain of C57BL6 mice (A20)
Procedure: This experiment, using an ex-vivo approach and the tautomeric reaction of L-dopachrom, was designed to ascertain the level of inhibition of MIF following administration of the compounds of this invention via oral, IV, IP or any other route of administration. Mice were used in the example illustrated below, but other animals could be used as well. Groups of 3 mice were administered IP 1 mg of 4-IPP and ACT-002 resuspended in 100 μl of corn oil every day for 3 days. Mice were sacrificed 6 hours after the last injection and livers were harvested. ˜1 gram pieces of liver were lysed in PBS containing 1 mM NaVO4, 2 mM NaF and a protease inhibitor cocktail (Roche Biochemical, Indianapolis, Ind.) using dounce-homogenization on ice. 500 μg of liver lysates were added to a final volume of 700 μl PBS in plastic cuvettes. 4 mM L-3, 4-dihydroxyphenylalanine methyl ester and 8 mM sodium periodate (Sigma-Aldrich) were combined in a 3:2 ratio to form L-dopachrome methyl ester. 300 μL of L-dopachrome methyl ester was then immediately added to the cuvettes; the OD475 nm was measured 2 min and 4 min after addition of the L-dopachrome.

MIF [2] = molecular target: T1, MIF; assay: Oral bioavailability: ex vivo MIF enzymatic activity in liver, brain and lung after IP and PO dosing; design: species or system C57BL6 mice
Procedure: The compounds were administered orally (PO) and intraperitoneally (IP) to healthy animals. The inhibition of the MIF liver enzymatic activity determined ex vivo following IP and PO dosing is similar, indicating high oral bioavailability. Furthermore, brain and lung tissues were collected and processed to determine MIF enzymatic activity in these organs. […] Inhibition of MIF enzyme was determined […] following dosing of MIF-002 at 40 mg/kg once a day for three days, both IP and PO (normal C57BL6 mice, n=3). Tissues were collected at sacrifice and processed. Liver, lung, and brain tissues were collected, processed, and used for the determination of MIF enzyme activity. Values are expressed as a percentage calculated using DMSO as control (no inhibition).
Two additional compounds were tested, MIF-035 and MIF-041.

[3] = Solubility in varying solvents; type: physicochemical; conditions: 21 °C, 20-22° C.
[4] = Caco-2 cell permeability and transport; type: in vitro ADME; conditions: human, Caco-2, pH 7.4
Method in brief: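 Caco-2 and MDR1-MDCK monolayers were run in triplicate, apical-to-basolateral and basolateral-to-apical, in modified Hanks buffer pH 7.4 with 1% BSA on the receiver side. Monolayer integrity was checked with atenolol and propranolol. Both sides were sampled at 2 h and quantified by LC/MS-MS.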

p53 = p53 up regulation, p53 luciferase assay; type: cell-based; conditions: 10 μM; FIG. 5
Procedure: The up regulation of p53 was determined using a commercially available p53 luciferase assay kit. 1×10^5 cells/ml were plated in a 24 well plate and allowed to adhere overnight. MIF antagonists were added to the cells at the indicated concentrations for 16 hours and transiently co-transfected with 0.125 μg/well of p53-responsive luciferase promoter plasmid (Promega, Madison, Wis.) together with 0.0125 μg/well Renilla pRL-null plasmid (Promega) using Lipofectamine (Invitrogen) transfection reagent. After 24 hrs, Firefly and Renilla luciferase activities were measured by the Dual Luciferase Reporter Assay System (Promega, Madison, Wis.) on a TD-20/20 luminometer (Turner Designs).

[5] = system: primary human T lymphocytes; assay: Anti-CD3 induced T lymphocyte activation/proliferation (flow cytometry); type: cell-based; conditions: 25 μM
Procedure: In order to assess the ability of MIF antagonists to disrupt autoimmune-associated T cell activation, primary human T lymphocytes were prepared using standard Ficoll-gradient preparations. 1×10^6 lymphocytes/ml were resuspended in RPMI/10% FCS and plated onto anti-CD3 antibodies previously immobilized onto tissue culture plates. Control, vehicle control (0.1% DMSO), 25 μM 4-IPP or 25 μM ACT-003 were added to cells and allowed to incubate for 48 hours. Cells were lifted, washed and stained with anti-CD4 or anti-CD8 antibodies and then analyzed by flow cytometry.
To validate the effects of MIF antagonists on T lymphocyte activation, experiments were set up exactly as described above and, 48 hours later, treated and untreated lymphocytes were stained with an anti-CD25 antibody. CD25 is also known as the high affinity IL-2 receptor—a very well characterized and frequently marker of T lymphocyte activation.
In order to investigate the relative kinetics of when 4-IPP and ACT-003 are acting in blocking T lymphocyte activation, we repeated the experiment described above but harvested lymphocytes only 16 hours after anti-CD3 plating. At this early time point during T lymphocyte activation, CD69 is found to be expressed and is usually considered to be an “early marker” of lymphocyte activation.
Finally, to confirm that proliferation of CD4+ and CD8+ T lymphocytes is blocked by 4-IPP-based MIF antagonists, we repeated the experiment as described above, added labeled-BrdU to cells, stained with either labeled anti-CD4 or anti-CD8 antibodies and then assessed relative CD4/CD8 and BrdU labeling in each treatment group.

SMILES | MIF liver enzyme inhibition (MIF [1]) | Inhibition of MIF enzymatic activity in brain and lungs (MIF [2]; 40 mg/kg once a day for three days, IP and PO, FIG. 12) | Oral bioavailability (MIF [2]; judged from ex vivo MIF inhibition after IP and PO dosing) | Crossing of the blood brain barrier (MIF [2]; judged from ex vivo MIF inhibition in brain) | solubility ([3]; aqueous with cosolvent or surfactant or cyclodextrin, Cremophor) | solubility ([3]; aqueous with cosolvent or surfactant or cyclodextrin, Ethanol/Tween 80) | solubility ([3]; oil or lipid, Corn oil) | solubility ([3]; organic solvent or mixture, DMSO) | solubility ([3]; organic solvent or mixture, Ethanol) | solubility ([3]; organic solvent or mixture, PEG-300) | solubility ([3]; organic solvent or mixture, Propane-diol) | efflux ratio at 2 h [4] | p53 regulation (p53) | CD69 expression ([5]; 16 hours, FIGS. 17 and 18) | CD4 and CD8 T lymphocytes after anti-CD3 activation ([5]; 48 hours, FIGS. 13 and 14) | Anti-CD3-induced CD25 expression ([5]; 48 hours, FIGS. 15 and 16) | BrdU labeling of CD8+ and CD4+ T lymphocytes (proliferation) ([5]; 48 hours, FIGS. 19 and 20)
COc1ccc(-c2cc(I)ncn2)c(F)c1 [ACT-MIF-002, 4-Iodo-6-(2-fluoro-4-methoxyphenyl)pyrimidine] | significant in vivo inhibition of MIF | inhibits MIF enzymatic activity in both the brain and the lungs | orally bioavailable | crosses the brain blood barrier |  |  |  |  |  |  |  |  |  |  |  |  | 
Fc1ccccc1-c1cc(I)ncn1 [ACT-MIF-003, 4-Iodo-6-(2-fluorophenyl)pyrimidine] |  |  |  |  | 15 mg/mL (≈ 50 mM) | 20 mg/mL (≈ 66.7 mM) | 15 mg/mL (≈ 50 mM) | 216 mg/mL (≈ 720 mM) | 85 mg/mL (≈ 283 mM) | 66 mg/mL (≈ 220 mM) | 25 mg/mL (≈ 83.3 mM) | 1.2 | implicated in p53 regulation | only a marginal effect on CD69 expression | significantly fewer CD4 and CD8 T lymphocytes | almost completely blocked the anti-CD3-induced CD25 expression | almost completely blocked BrdU labeling in both CD8+ and CD4+ T lymphocytes
